Columns and labels:
[1] = Particle size and PDI of lipid nanoparticles by dynamic light scattering; assay type: physicochemical; settings: lipid nanoparticles with luciferase mRNA; ionizable lipid/cholesterol/DSPC/DMG-PEG2000 50/38.5/10/1.5 mol%
Method: (§1) Lipid nanoparticles were prepared by (1) dissolving and mixing ionizable lipid compounds, cholesterol, phospholipids and polyethylene glycolated lipids in ethanol at (molar percentages) 50%, 38.5%, 10% and 1.5%, respectively; (2) dissolving the mRNA active ingredient in 25 mM sodium acetate solution (pH=4.5); (3) using an automated high-throughput microfluidic system to mix the organic phase containing the lipid mixture and the aqueous phase containing the mRNA component in the flow ratio range of 1:1 to 1:4 at a mixing speed of 10 mL/min to 18 mL/min; (4) the prepared lipid nanoparticles (N/P ratio=6) were diluted with phosphate buffer solution and the nanoparticle solutions were ultrafiltered to the original preparation volume using ultrafiltration tubes (purchased from Millipore) with a cut-off molecular weight of 30 kDa; and (5) the obtained nanoparticles were filtered through a sterile 0.2 μm filter membrane and then stored in a sealed glass vial at low temperature.
(§2) The particle size and particle size dispersity index (PDI) of the prepared lipid nanoparticles were measured using a Zetasizer Pro (purchased from Malvern Instruments Ltd) and a DynaPro NanoStar (purchased from Wyatt) dynamic light scattering instrument. The degree of RNA encapsulation by lipid nanoparticles was characterized by the Encapsulation Efficiency %, which reflects the degree of binding of lipid nanoparticles to RNA fragments. This parameter was measured by the method of Quant-it™ RiboGreen RNA Assay (purchased from Invitrogen). Lipid nanoparticle samples were diluted in TE buffer (10 mM Tris-HCl, 1 mM EDTA, pH=7.5). A portion of the sample solution was removed, to which 0.5% Triton (Triton X-100) was added, and then allowed to stand at 37° C. for 30 minutes. Immediately after the addition of RIBOGREEN® reaction solution, the fluorescence values were read on a Varioskan LUX multifunctional microplate reader (purchased from Thermofisher) at 485 nm for absorption and 528 nm for emission to give the encapsulation efficiency values.

[2] = Encapsulation efficiency of lipid nanoparticles (Quant-it RiboGreen RNA Assay); assay type: physicochemical; settings: lipid nanoparticles with luciferase mRNA
Method: as §1, §2

C57BL/6 mice = assay: In vivo delivery of luciferase mRNA lipid nanoparticles in mice (bioluminescence imaging); settings: intravenous, single dose 0.5 mg/kg luciferase mRNA
Method: The delivery effect and safety of nanoparticles encapsulated with luciferase mRNA (Trilink, L-7202) in mice were evaluated. The test mice were SPF-grade C57BL/6 mice, female, 6-8 weeks old, weighing 18-22 g, and were purchased from SPF (Beijing) Biotechnology Co., Ltd. All animals were acclimatized for more than 7 days prior to the experiment, and had free access to food and water during the experiment. The conditions include alternating light and dark for 12/12 h, the indoor temperature of 20-26° C. and the humidity of 40-70%. The mice were randomly grouped. The lipid nanoparticles encapsulated with luciferase mRNA prepared above were injected into mice by intravenous administration at a single dose of 0.5 mg/kg mRNA, and the mice were subjected to in vivo bioluminescence assay using a Small Animal In Vivo Imaging System (IVIS LUMINA III, purchased from PerkinElmer) at 6 h after administration. The assay was performed as follows: D-luciferin solution was prepared in saline at a concentration of 15 mg/mL, and each mouse was given the substrate by intraperitoneal injection. At ten minutes after administration of the substrate, the mice were anesthetized in an anesthesia chamber with isoflurane at a concentration of 2.5%. The anesthetized mice were placed in IVIS for fluorescence imaging, and data acquisition and analysis were performed on the concentrated distribution area of fluorescence.
The in vivo delivery efficiency of lipid nanoparticle carriers was expressed as the mean values of fluorescence intensity and total photon count in different animals within the same subject group, as shown in Table 5-Table 11. Higher values of fluorescence intensity and total photon count indicate higher in vivo delivery efficiency of this mRNA fragment by lipid nanoparticles. The lipid nanoparticles containing the cationic lipids of the present disclosure have good in vivo delivery efficiency.

Row | SMILES | Particle size (nm) [1] | Particle-size distribution (PDI) [1] | Encapsulation efficiency (%) [2] | Total photon count in vivo at 6 hours after administration (Total Flux) (C57BL/6 mice)
1 | CCCCCCCCCCOC(=O)CCCCC(C)(C)CCN(CCCCO)CCCCCCCC(=O)OC(CCCCCCCCC)CCCCCCCCC [67a] | 111.33 nm | 0.06 | 91.57% | 6.07E+10
2 | CCCCCCCCCCCOC(=O)CCCCCN(CCO)CCCCCCC(C)(C)C(=O)OCCC(CCCCCC)CCCCCC [15a] | 95.94 nm | 0.021 | 90.77% | 4.15E+10
3 | CCCCCCCCCOC(=O)OCCCCCCN(CCO)CCCCCCC(C)(C)C(=O)OCCCC(CCCCC)CCCCC [35a] | 126.63 nm | 0.22 | 95.00% | 3.01E+10
4 | CCCCCCCCCCCOC(=O)CCCCCN(CCO)CCCCCCC(C)(C)C(=O)OC(CCCCCCCC)CCCCCCCC [3a] | 89.72 nm | 0.021 | 94.23% | 1.03E+11
5 | CCCCCCCCCCOC(=O)CCC(C)(C)CCCCN(CCCCO)CCCCCCCC(=O)OC(CCCCCCCCC)CCCCCCCCC [29a] | 88.59 nm | 0.012 | 97.30% | 5.46E+10
6 | CCCCCCCCCCOC(=O)OCCCCCN(CCO)CCCCCCC(C)(C)C(=O)OC(CCCCCCCC)CCCCCCCC [31a] | 115.56 nm | 0.11 | 86.08% | 7.04E+10
7 | CCCCCCCCCCOC(=O)OCCCCCCN(CCO)CCCCCCC(C)(C)C(=O)OC(CCCCCCCCC)CCCCCCCCC [48a] | 81.22 nm | 0.16 | 96.13% | 8.16E+10
8 | CCCCCCCCCC(=O)OCCCCCCCN(CCO)CCCCCCC(C)(C)C(=O)OC(CCCCCCCC)CCCCCCCC [6b] | 99.55 nm | 0.029 | 80.01% | 7.42E+10
9 | CCCCCCCCCC(=O)OCC(C)(C)CCCCCN(CCCO)CCCCCCCC(=O)OC(CCCCCCCC)CCCCCCCC [2b] | 104.61 nm | 0.013 | 80.17% | 8.31E+10
10 | CCCCCCCCCCCOC(=O)OCCCCCN(CCCCO)CCCCCC(C)(C)COC(=O)CC(CCCCCCC)CCCCCCC [31b] | 118.73 nm | 0.07 | 95.73% | 1.87E+10

Now from value to compound, other results behind:

Row | Particle size (nm) [1] | Particle-size distribution (PDI) [1] | Encapsulation efficiency (%) [2] | SMILES | Total photon count in vivo at 6 hours after administration (Total Flux) (C57BL/6 mice)
11 | 141.73 nm | 0.10 | 90.17% | CCCCCCCCCC(=O)OCCCC(C)(C)CCCN(CCCCO)CCCCCCC(=O)OCCC(CCCCCCC)CCCCCCC [93b] | 2.45E+10
12 | 98.88 nm | 0.12 | 92.27% | CCCCCCCCCCC(=O)OCC(C)(C)CCCCCN(CCCCO)CCCCCCC(=O)OCC(CCCCCCCCC)CCCCCCCCC [78b] | 5.51E+10
13 | 96.82 nm | 0.11 | 94.07% | CCCCCCCCCC(=O)OCCC(C)(C)CCCCN(CCCO)CCCCCCC(=O)OCCC(CCCCCCC)CCCCCCC [103b] | 5.95E+10
14 | 99.27 nm | 0.15 | 92.85% | CCCCCCCCCCC(=O)OCC(C)(C)CCCCCN(CCCO)CCCCCCCCC(=O)OCC(CCCCCCC)CCCCCCC [79b] | 1.62E+11
15 | 106.37 nm | 0.050 | 91.18% | CCCCCCCCCOC(=O)CCCCC(C)(C)CCN(CCO)CCCCCCCC(=O)OCC(CCCCCCC)CCCCCCC [26a] | 1.11E+11
16 | 100.40 nm | 0.21 | 96.35% | CCCCCCCCCC(=O)OCC(C)(C)CCCCCN(CCCCO)CCCCCCOC(=O)OCC(CCCCCCCC)CCCCCCCC [35b] | 3.77E+10
17 | 86.99 nm | 0.051 | 95.62% | CCCCCCCCCOC(=O)CCCCC(C)(C)CCN(CCO)CCCCCCCC(=O)OC(CCCCCCCC)CCCCCCCC [25a] | 1.33E+11
18 | 135.57 nm | 0.09 | 91.51% | CCCCCCCCCC(=O)OCCC(C)(C)CCCCN(CCCCO)CCCCCCC(=O)OCCC(CCCCCCC)CCCCCCC [104b] | 3.20E+10
19 | 99.05 nm | 0.13 | 93.85% | CCCCCCCCCC(=O)OCC(C)(C)CCCCCN(CCCCO)CCCCCCC(=O)OCC(CCCCCCCC)CCCCCCCC [69b] | 1.52E+11
20 | 120.13 nm | 0.09 | 90.71% | CCCCCCCCCCC(=O)OCCCC(C)(C)CCCN(CCCCO)CCCCCCCCC(=O)OCC(CCCCCCC)CCCCCCC [116b] | 1.96E+10
21 | 98.16 nm | 0.12 | 94.68% | CCCCCCCCCCCC(=O)OCC(C)(C)CCCCCN(CCCO)CCCCCCCCC(=O)OCC(CCCCCCCC)CCCCCCCC [88b] | 4.51E+10
22 | 143.67 nm | 0.09 | 89.27% | CCCCCCCCCC(=O)OCCCC(C)(C)CCCN(CCCCO)CCCCCCCC(=O)OCC(CCCCCCC)CCCCCCC [64b] | 3.36E+10
23 | 133.93 nm | 0.21 | 85.48% | CCCCCCCCC(=O)OCC(C)(C)CCCCCCN(CCO)CCCCCCC(=O)OCC(CCCCCCCC)CCCCCCCC [110b] | 1.36E+11
24 | 86.08 nm | 0.15 | 96.69% | CCCCCCCCCOC(=O)CCCCC(C)(C)CCN(CCO)CCCCCCC(=O)OCC(CCCCCCCC)CCCCCCCC [70a] | 9.33E+10
25 | 93.39 nm | 0.18 | 93.59% | CCCCCCCCCCC(=O)OCCCC(C)(C)CCCN(CCO)CCCCCCCC(=O)OCCC(CCCCCCC)CCCCCCC [80b] | 8.94E+10
